Assay results as given in ChEMBL document CHEMBL5325467, “Discovery of novel hypoxia-activated, nitroimidazole constructed multi-target kinase inhibitors on the basis of AZD9291 for the treatment of human lung cancer” (Bioorg Med Chem, 2023).

Experiments:
[1] = target: Epidermal growth factor receptor (Homo sapiens, UniProt P00533, L858R/T790M); test: Inhibition of EGFR L858R/T790M mutant (unknown origin) by mobility shift assay
[2] = target: Epidermal growth factor receptor (Homo sapiens, UniProt P00533); test: Inhibition of wild type EGFR (unknown origin) by mobility shift assay
Sequence of Epidermal growth factor receptor (Homo sapiens, UniProt P00533) (P00533 whole entry): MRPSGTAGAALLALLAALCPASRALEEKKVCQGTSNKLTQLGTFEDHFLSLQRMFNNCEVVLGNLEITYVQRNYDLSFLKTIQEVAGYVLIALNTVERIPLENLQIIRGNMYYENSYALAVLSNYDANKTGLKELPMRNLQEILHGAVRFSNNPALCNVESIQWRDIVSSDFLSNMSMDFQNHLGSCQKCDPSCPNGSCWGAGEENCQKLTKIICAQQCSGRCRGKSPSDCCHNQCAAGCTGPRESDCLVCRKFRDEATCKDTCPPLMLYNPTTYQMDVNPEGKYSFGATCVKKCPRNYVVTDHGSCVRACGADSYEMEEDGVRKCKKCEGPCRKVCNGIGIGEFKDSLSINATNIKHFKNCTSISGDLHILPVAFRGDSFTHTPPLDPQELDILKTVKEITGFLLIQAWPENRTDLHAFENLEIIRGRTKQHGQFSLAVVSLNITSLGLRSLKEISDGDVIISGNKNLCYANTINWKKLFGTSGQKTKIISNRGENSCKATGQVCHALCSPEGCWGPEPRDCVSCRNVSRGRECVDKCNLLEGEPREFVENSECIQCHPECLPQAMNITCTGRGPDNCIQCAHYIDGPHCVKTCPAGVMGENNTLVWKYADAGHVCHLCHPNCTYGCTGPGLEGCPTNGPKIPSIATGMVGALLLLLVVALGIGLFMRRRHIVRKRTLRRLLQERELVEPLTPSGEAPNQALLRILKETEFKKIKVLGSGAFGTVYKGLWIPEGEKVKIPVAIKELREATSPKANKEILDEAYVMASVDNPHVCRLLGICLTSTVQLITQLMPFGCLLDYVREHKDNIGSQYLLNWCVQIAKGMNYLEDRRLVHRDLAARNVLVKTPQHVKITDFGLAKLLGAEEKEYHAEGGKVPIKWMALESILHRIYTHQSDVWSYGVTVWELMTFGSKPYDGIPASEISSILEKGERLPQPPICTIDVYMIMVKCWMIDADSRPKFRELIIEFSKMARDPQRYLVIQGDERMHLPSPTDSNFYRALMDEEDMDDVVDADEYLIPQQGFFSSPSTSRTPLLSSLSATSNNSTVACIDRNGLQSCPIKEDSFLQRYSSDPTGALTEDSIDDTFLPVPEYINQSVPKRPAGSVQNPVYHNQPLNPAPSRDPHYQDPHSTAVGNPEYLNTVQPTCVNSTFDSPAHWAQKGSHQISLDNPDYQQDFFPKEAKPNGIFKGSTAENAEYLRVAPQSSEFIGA

[3] = Selectivity index, ratio of IC50 for inhibition of wild type EGFR (unknown origin) to IC50 for inhibition of EGFR L858R/T790M mutant (unknown origin)
[4] = test system: NCI-H1975; test: Antiproliferative activity against human NCI-H1975 cells harboring EGFR L858R/T790M mutant assessed as inhibition of cell growth incubated for 72 hrs under hypoxia condition by SRB assay; assay type: functional, cell-based; details: NCI-H1975, 72 h
[5] = test system: HCC827; test: Antiproliferative activity against human HCC827 cells harboring EGFR del19 mutant assessed as inhibition of cell growth incubated for 72 hrs under hypoxia condition by SRB assay; assay type: functional, cell-based; details: HCC827, 72 h
[6] = test system: NCI-H1975; test: Antiproliferative activity against human NCI-H1975 cells harboring EGFR L858R/T790M mutant assessed as inhibition of cell growth incubated for 72 hrs under normoxia condition by SRB assay; assay type: functional, cell-based; details: NCI-H1975, 72 h
[7] = test system: HCC827; test: Antiproliferative activity against human HCC827 cells harboring EGFR del19 mutant assessed as inhibition of cell growth incubated for 72 hrs under normoxia condition by SRB assay; assay type: functional, cell-based; details: HCC827, 72 h

Sequence of Epidermal growth factor receptor (Homo sapiens, UniProt P00533, L858R/T790M) (P00533 25-1210 T790M/L858R limits assumed): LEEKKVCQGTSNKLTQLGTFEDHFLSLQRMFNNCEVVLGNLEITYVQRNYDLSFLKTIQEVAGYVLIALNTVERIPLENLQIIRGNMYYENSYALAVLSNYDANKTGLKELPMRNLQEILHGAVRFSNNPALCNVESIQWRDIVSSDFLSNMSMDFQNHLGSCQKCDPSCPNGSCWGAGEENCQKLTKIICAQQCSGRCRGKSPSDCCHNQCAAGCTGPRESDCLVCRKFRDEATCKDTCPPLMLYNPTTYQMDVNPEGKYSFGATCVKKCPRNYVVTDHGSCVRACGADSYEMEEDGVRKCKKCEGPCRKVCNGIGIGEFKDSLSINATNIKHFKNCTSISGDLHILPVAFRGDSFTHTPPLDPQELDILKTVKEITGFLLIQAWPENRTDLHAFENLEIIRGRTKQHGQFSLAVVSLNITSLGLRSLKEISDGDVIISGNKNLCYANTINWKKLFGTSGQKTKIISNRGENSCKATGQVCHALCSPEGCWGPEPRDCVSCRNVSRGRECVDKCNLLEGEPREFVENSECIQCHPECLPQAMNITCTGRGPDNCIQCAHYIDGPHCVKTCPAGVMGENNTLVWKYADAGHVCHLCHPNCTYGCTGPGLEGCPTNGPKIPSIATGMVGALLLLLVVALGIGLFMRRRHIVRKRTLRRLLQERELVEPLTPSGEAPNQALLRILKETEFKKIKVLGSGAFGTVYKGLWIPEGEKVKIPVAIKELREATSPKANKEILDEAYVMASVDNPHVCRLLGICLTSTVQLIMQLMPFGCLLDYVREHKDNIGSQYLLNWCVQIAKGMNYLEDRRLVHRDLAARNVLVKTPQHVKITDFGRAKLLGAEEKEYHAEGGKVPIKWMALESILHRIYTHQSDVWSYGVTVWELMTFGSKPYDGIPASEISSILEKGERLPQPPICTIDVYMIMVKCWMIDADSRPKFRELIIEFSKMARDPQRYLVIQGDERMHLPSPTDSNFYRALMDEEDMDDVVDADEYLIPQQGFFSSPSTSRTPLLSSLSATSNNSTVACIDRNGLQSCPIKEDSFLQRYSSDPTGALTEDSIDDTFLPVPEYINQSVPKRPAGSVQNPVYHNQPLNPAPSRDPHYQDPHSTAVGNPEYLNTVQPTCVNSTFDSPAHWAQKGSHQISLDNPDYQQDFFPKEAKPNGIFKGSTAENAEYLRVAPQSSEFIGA

Row | Structure (SMILES) | IC50 [1] | IC50 [2] | Ratio IC50 [3] | other results
1 | Cc1ccc(OCCOCCn2ccnc2[N+](=O)[O-])cc1Nc1nccc(-c2cn(C)c3ccccc23)n1 | 1310 nM | – | – | –
2 | Cn1cc(-c2ccnc(Nc3ccc(OCCCCn4cnc([N+](=O)[O-])c4)c(F)c3)n2)c2ccccc21 | 829 nM | – | – | –
3 | Cn1cc(-c2ccnc(Nc3ccc(OCCCCn4ccnc4[N+](=O)[O-])cc3)n2)c2ccccc21 | 1180 nM | – | – | –
4 | Cn1cc(-c2ccnc(Nc3ccc(OCCOCCn4ccnc4[N+](=O)[O-])cc3)n2)c2ccccc21 | 512 nM | 9370 nM | 18.3 | –
5 | C=CC(=O)Nc1cc(Nc2nccc(-c3cn(C)c4ccccc34)n2)c(OC)cc1N(C)CCN(C)C [OSIMERTINIB] | – | – | – | IC50 [4]: […]; IC50 [5]: 32.3 nM; IC50 [6]: […]; IC50 [7]: 33.7 nM

Now from value to compound, other results behind:

Row | IC50 [1] | IC50 [2] | Ratio IC50 [3] | Structure (SMILES) | other results
6 | 722 nM | > 10000 nM | > 13.8 | Cn1cc(-c2ccnc(Nc3ccc(OCCOCCn4ccnc4[N+](=O)[O-])c(F)c3)n2)c2ccccc21 | –
7 | 2670 nM | – | – | Cn1cc(-c2ccnc(Nc3ccc(Cl)c(OCCOCCn4ccnc4[N+](=O)[O-])c3)n2)c2ccccc21 | –
8 | 262 nM | 7440 nM | 28.4 | CC(=O)c1ccc(Nc2nccc(-c3cn(C)c4ccccc34)n2)cc1OCCOCCn1ccnc1[N+](=O)[O-] | –
